In US6414170B1, “Preparation of cationic surfactants containing ester group in molecules” (LG Chemical Ltd., priority 1998, dated 2002):

Assay: OECD 301D Closed Bottle Test (evaluation of ultimate biodegradability)
Settings: 60% or more biodegraded two weeks from start of decomposition, test period of 28 days
Text: Measuring of the ultimate biodegradability was made by taking an OECD 301D Closed Bottle Test (a test for determining whether or not 60% or more can be biodegraded two weeks from the time when the sample begins decomposing during the test period of 28 days) on cationic surfactants prepared in EXAMPLES 1 to 8, dimethyl dialkyl ammonium chloride, and imidazoline ester. The ultimate biodegradabilities of cationic surfactants of EXAMPLE 1, 2, 8, and conventional cationic surfactants were less than 60%, thereby not being readily biodegradable.

dimethyl dialkyl ammonium chloride
Readily biodegradable: No
